Source: patent publication US5434138A, “Gonadoliberin antagonists” (Hoechst Aktiengesellschaft, priority 1990, dated 1995)

Experiments:
[1] = system: immature female rats (LHRH-induced ovulation); assay: Rat antiovulation assay; type: in vivo; conditions: PMSG-pretreated immature female rats, phenobarbital; 800 ng LHRH s.c. 2 hours after antagonist
Protocol: (§1) The peptides according to the invention have been tested for an atrophic effect on androgen-dependent organs and for an LH- and testosterone-lowering effect in serum and blood of male rats by continuous infusion (MINIPUMPS). The ovulation-inhibiting effect has been tested on female rats. The histamine release was checked using rat peritoneal mast cells.
The ovulation-inhibiting effect was tested in immature female rats which had been pretreated with PMSG (pregnant mare serum gonadotropin) in order to induce follicle maturation, Spontaneous ovulation was prevented by barbiturate (phenobarbital). A test dose of 800 ng of LHRH was injected subcutaneously 2 hours after the antagonists. The test substances were injected subcutaneously dissolved in 5% strength mannitol solution. The next day the Fallopian tubes were dissected out and stained with Patent Blue, and the tubular oocytes were counted under a microscope. The dose for an ovulation-inhibiting effect (ED 100) was determined for all the antagonists.

[2] = system: rat peritoneal mast cells; assay: Histamine release from peritoneal mast cells; type: cell-based, Wistar rats; conditions: 37° C., 30 minutes
Protocol: as §1
Wistar rats were sacrificed by decapitation. 50 ml of a 0.9% strength NaCl solution were injected into the abdominal cavity and, after gentle massage, the abdominal wall was opened. The fluid, which contains the peritoneal cells, was aspirated using a Pasteur pipette and then centrifuged. The pelleted cells were resuspended and, after testing viability, diluted to 10^6 mast cells/ml.
150 μl of the dissolved gonadoliberin antagonist were added to a suspension of 10^5 mast cells in 150 μl of 0.9 % strength NaCl solution. After incubation at 37° C. for 30 minutes, the test tubes were centrifuged and the supernatant was removed. The LHRH antagonist Ac-D-Nal-D-p-Cl-D-Phe-D-Trp-Ser-Tyr-D-Ser(Rha)-Leu-Arg-Pro-Azagly-NH2, known to be a compound which induces histamine release by mast cells, was used as comparison substance. To determine the total histamine release (100%), the mast cell suspensions were rapidly boiled over a Bunsen burner.
A modified form of the methods described by Skofitsch et al. (J. Chromatography, 226, 53-59, 1981) and Siraganian and Hook (in Manual of Clinical Laboratory Immunology; eds: Rose et al. American Society of Microbiology, Washington D.C., pages 675, 1986) was used. Briefly summarized, 100 μl of a 1N NaOH and 100 μl of phthalaldehyde were added to 250 μl of supernatant and shaken vigorously. After a reaction time of 2 minutes, the fluorophore was converted into a more strongly fluorescent and stable product by acidification with 50 μl of 3N HCl. 10 μl of the supernatant were injected into the Chromspher C8 column (Chrompak FRW) of the HPLC system. This system comprises an SP 8100 chromatograph (Spectra Physics) and an SP 4270 integrator (Spectra Physics) and an LS-1 fluorescence detector (Perkin Elmer). The fluorescence was recorded at the wavelengths of 360 nm excitation and 450 nm emission.
Histamine release from peritoneal mast cells (μl/ml)

serum testosterone = assay: Testosterone-lowering effect on infusion by minipumps; type: in vivo, rat; conditions: male rats, subcutaneous infusion by minipumps for 7 days
Protocol: as §1
The testosterone-lowering effect was tested on male rats during subcutaneous infusion for 7 days. The biological effect on androgen-dependent organs and serum testosterone was recorded. The test compounds were administered by subcutaneous infusion using minipumps at a rate of […] for 7 days. The test compounds were dissolved in sterile 5 % strength mannitol solution. The minipumps were implanted subcutaneously in the region of the back under anesthesia and aseptic conditions.
Serum testosterone was extracted with diethyl ether and determined by a specific RIA.
Testosterone-lowering effect on infusion by minipumps

histamine secretion = conditions: A. Phillips et al., Life Sci. 41 (1987); cited from earlier work

| Substance | Ovulation-inhibiting dose (ED 100) [1] [ng per rat s.c.] | Histamine release, percentage relative to total histamine release on boiling ([2]; 0.01 (μl/ml) antagonist) [%] | Histamine release, percentage relative to total histamine release on boiling ([2]; 0.1 (μl/ml) antagonist) [%] | Histamine release, percentage relative to total histamine release on boiling ([2]; 1 (μl/ml) antagonist) [%] | Histamine release, percentage relative to total histamine release on boiling ([2]; 10 (μl/ml) antagonist) [%] | Histamine release, percentage relative to total histamine release on boiling ([2]; 100 (μl/ml) antagonist) [%] | Testosterone-lowering effect on infusion by minipumps: Dose per day (serum testosterone) [μg/24 h/rat] | histamine secretion (histamine secretion) |
| --- | --- | --- | --- | --- | --- | --- | --- | --- |
| Ac-D-NaI-D-p-Cl-Phe-D-Trp-Ser-Tyr-D-Ser(Rha)-Leu-Ser(Rha)-pro-Azagly-NH2 [Example 1] | 120 | 0.33 | 2.82 | -2.16 | -5.37 | -8.61 | 120 | – |
| Ac-D-Nal-D-p-Cl-Phe-D-Pal-Ser-Tyr-D-Ser(Rha)-Leu-Ser(Fuc)-Pro-Azagly-NH2 [Example 4] | 64 | – | – | – | – | – | 60 | – |
| Ac-D-Nal-D-p-Cl-Phe-D-Pal-Ser-Tyr-D-Ser(Rha)-Leu-Ser (Rha)-Pro-Azagly-NH2 [Example 2] | 256 | 2.5 | 4.6 | 3.7 | 0.9 | 0.0 | 120 | – |
| Ac-D-Nal-D-p-Cl-D-Phe-D-Trp-Ser-Tyr-D-Ser(Rha)-Leu-Arg-Pro-Azagly-NH2 [Comparison substance, reference compound] | – | 2.6 | 2.1 | 15.3 | 92.4 | 107.6 | – | – |
| Nal-Glu | – | – | – | – | – | – | – | greatly reduced |
| Ac-D-Nal-D-p-Cl-Phe-D-Trp-Ser-Tyr-D-Ser(Rha)-Leu-Ser(Xyl)-Pro-Azagly-NH2 [Example 3] | 512 | – | – | – | – | – | 120 | – |
| Ac-D-Nal-D-p-Cl-Phe-D-Pal-Ser-Tyr-D-Ser(Rha)-Leu-Ser(Rha)-Pro-D-Ala-NH2 [Example 5] | 64 | 1.9 | 2.4 | 0.9 | 0.3 | 3.8 | 60 | – |
